Reference: ChEMBL document CHEMBL1287811, “Two new cytotoxic labdane diterpenes from the rhizomes of Hedychium coronarium” (2010)

Key:
Type in all cases: functional
MCF7 = experiment: Growth inhibition of human MCF7 cells by Sulforhodamine B assay
A549 = experiment: Growth inhibition of human A549 cells by Sulforhodamine B assay; settings: for CC50: read-out: LC50 (the source's name)
SK-N-SH = experiment: Growth inhibition of human SK-N-SH cells by Sulforhodamine B assay
HeLa = experiment: Growth inhibition of human HeLa cells by Sulforhodamine B assay

SMILES | GI50 (MCF7) [µM] | LC50 (concentration killing 50% of cells) (MCF7) [µM] | GI50 (A549) [µM] | CC50 (A549) [µM] | GI50 (SK-N-SH) [µM] | LC50 (SK-N-SH) [µM] | GI50 (HeLa) [µM] | LC50 (HeLa) [µM]
CC1(C)CCC[C@]2(C)[C@@H](/C=C/C3=CCOC3=O)C(C=O)=CC(=O)[C@@H]12 | 69.9 | > 100 | 18.5 | 45.9 | 38.7 | 48.5 | 76.9 | > 100
CC1(C)CCC[C@]2(C)[C@@H](/C=C/C3=CC(=O)OC3)C(CO)=C(O)C(=O)[C@@H]12 | 12 | 15.4 | 26 | 48.7 | 12.1 | 19.3 | 79.7 | > 100
CC1=CC(=O)[C@H]2C(C)(C)CCC[C@]2(C)[C@H]1/C=C/C1=CCOC1=O | 15.7 | 19.8 | 21.7 | 39.6 | 8.2 | 20.8 | 83.6 | > 100
CC1=CC(=O)[C@H]2C(C)(C)CCC[C@]2(C)C1/C=C/C1=CC(O)OC1=O (some centres not stated) | 28.5 | 34.8 | 10.6 | 21.2 | 17.5 | 22.8 | > 100 | > 100
COc1cc(/C=C/C=O)ccc1O [CONIFERYL ALDEHYDE] | 39.5 |  | 1.7 | 11.4 | 10.6 |  | 61.8 | 
C=C1CC[C@H]2C(C)(C)CCC[C@]2(C)[C@H]1CCC1=CC(O)OC1=O (some centres not stated) [CORONARIN C] | 32.6 | 40.7 | 4.8 | 9.5 | 25.8 | 33.7 | 36.3 | 45.9
C=C1CC[C@H]2C(C)(C)CCC[C@]2(C)[C@H]1C/C=C1/CC(OC)OC1=O (some centres not stated) [CORONARIN D METHYL ETHER] | 25.3 | 31.6 | 30 | 71.3 | 13.6 | 19.1 | > 100 | > 100
C=C1CC[C@H]2C(C)(C)CCC[C@]2(C)[C@H]1C/C=C1/CC(O)OC1=O (some centres not stated) [CORONARIN D] | 17.4 | 21.9 | 8 | 14 | 20.1 | 32 | 47 | 60.6
CC(C)(O)C1CC[C@@]2(C)CCC[C@@](C)(O)[C@@H]2C1 (some centres not stated) [CRYPTOMERIDIOL] | 62.3 |  | 14.5 | 27.4 | 73.6 |  | 75.6 | 
CCOC(=O)/C=C/c1ccc(O)c(OC)c1 [ETHYL FERULATE] | 86.3 |  | 1.2 | 5.8 | 22.3 |  | 52.8 | 
CC1=CC(=O)[C@H]2C(C)(C)CCC[C@]2(C)[C@H]1/C=C/c1ccoc1 [HEDYCHENONE] | 14.9 | 19.8 | 7.4 | 14 | 11.6 | 17.2 | 63.2 | 81.5
COC(=O)Nc1nc2cc(C(=O)c3cccs3)ccc2[nH]1 [NOCODAZOLE] | < 0.1 |  | < 0.1 | < 0.1 | 0.66 |  | 0.75 | 
C=C1C(C/C=C2\COC(=O)C2)[C@@]2(C)CCCC(C)(C)[C@@H]2C[C@@H]1O (some centres not stated) [PACOVATININ A] | 44.7 | 55.6 | 15.1 | 36.2 | 54.8 | 59.9 | 62.1 | 80.7
